From US20050009840A1 (SUGEN, INC., priority 2003, published 2005)

Molecular target: T1, Met kinase domain (GST fusion protein) (Homo sapiens, UniProt P08581)
T1 construct: Purified GST fusion protein containing the Met kinase domain
Experiment: Met transphosphorylation assay (ELISA, poly(glu-tyr) substrate);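 further: Cell-free ELISA with plate-bound poly(Glu:Tyr 4:1) phosphorylated by GST-fused Met kinase domain plus ATP and Mn2+, phosphotyrosine detected by anti-phosphotyrosine antibody with HRP and ABTS read-out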
Type: biochemical
Conditions: read-out: Met IC50

T1 sequence (P08581 1078-1345 limits assumed): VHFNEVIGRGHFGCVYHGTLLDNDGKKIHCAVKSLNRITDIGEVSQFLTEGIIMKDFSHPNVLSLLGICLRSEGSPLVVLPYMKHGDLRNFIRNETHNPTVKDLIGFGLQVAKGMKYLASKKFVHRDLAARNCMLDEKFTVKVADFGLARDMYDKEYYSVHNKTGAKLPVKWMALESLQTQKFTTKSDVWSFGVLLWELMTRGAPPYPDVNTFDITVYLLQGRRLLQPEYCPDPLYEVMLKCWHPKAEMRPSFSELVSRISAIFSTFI

IC50 | Compound
1.82 µM | Nc1ncc(-c2cccc(NS(=O)(=O)CCN3CCN(C(=O)CO)CC3)c2)nc1OCc1c(F)ccc(F)c1Cl [II-29]
0.15 µM | Nc1ncc(-c2ccc(C(=O)N3CCC[C@@H]3CN3CCCC3)cc2)nc1OCc1c(F)ccc(F)c1Cl [II-34, {4-[5-Amino-6-(2-chloro-3,6-difluoro-benzyloxy)-pyrazin-2-yl]-phenyl)-[(2R)-2-pyrrolidin-1-ylmethyl-pyrrolidin-1-yl]-methanone]
0.13 µM | Nc1ncc(-c2ccc(C(=O)NCCN3CCCC3)cc2)nc1OCc1c(F)ccc(F)c1Cl [II-35, 4-[5-Amino-6-(2-chloro-3,6-difluoro-benzyloxy)-pyrazin-2-yl]-N-(2-pyrrolidin-1-yl-ethyl)-benzamide]
0.37 µM | Nc1ncc(-c2ccc(C(=O)N3CC[C@H](N)C3)cc2)nc1OCc1c(F)ccc(F)c1Cl [II-36, {4-[5-Amino-6-(2-chloro-3,6-difluoro-benzyloxy)-pyrazin-2-yl]-phenyl}-[(3S)-3-amino-pyrrolidin-1-yl]-methanone]
1.11 µM | Nc1ncc(-c2ccc(C(=O)NCCN3CCOCC3)cc2)nc1OCc1c(F)ccc(F)c1Cl [II-45, 4-[5-Amino-6-(2-chloro-3,6-difluoro-benzyloxy)-pyrazin-2-yl]-N-(2-morpholin-4-yl-ethyl)-benzamide]
0.68 µM | CN1CCN(C(=O)c2ccc(-c3cnc(N)c(OCc4c(F)ccc(F)c4Cl)n3)cc2)CC1 [II-46, {4-[5-Amino-6-(2-chloro-3,6-difluoro-benzyloxy)-pyrazin-2-yl]-phenyl}-(4-methyl-piperazin-1-yl)-methanone]
2.85 µM | CN1CCN(C(=O)c2cccc(-c3cnc(N)c(OCc4c(F)ccc(F)c4Cl)n3)c2)CC1 [II-48, {3-[5-Amino-6-(2-chloro-3,6-difluoro-benzyloxy)-pyrazin-2-yl]-phenyl}-(4-methyl-piperazin-1-yl)-methanone]
1.02 µM | Nc1ncc(-c2cccc(C(=O)N3CC[C@@H](N)C3)c2)nc1OCc1c(F)ccc(F)c1Cl [II-49, {3-[5-Amino-6-(2-chloro-3,6-difluoro-benzyloxy)-pyrazin-2-yl]-phenyl}-[(3R)-3-amino-pyrrolidin-1-yl]-methanone]
0.91 µM | Nc1ncc(-c2cccc(C(=O)N3CC[C@H](N)C3)c2)nc1OCc1c(F)ccc(F)c1Cl [II-50, {3-[5-Amino-6-(2-chloro-3,6-difluoro-benzyloxy)-pyrazin-2-yl]-phenyl}-[(3S)-3-amino-pyrrolidin-1-yl]-methanone]
1.6 µM | Nc1ncc(-c2cccc(C(=O)NCCN3CCCC3)c2)nc1OCc1c(F)ccc(F)c1Cl [II-55, 3-[5-Amino-6-(2-chloro-3,6-difluoro-benzyloxy)-pyrazin-2-yl]-N-(2-pyrrolidin-1-yl-ethyl)-benzamide]
0.63 µM | Nc1ncc(-c2cccc(C(=O)N3CCC[C@H]3CN3CCCC3)c2)nc1OCc1c(F)ccc(F)c1Cl [II-57, {3-[5-Amino-6-(2-chloro-3,6-difluoro-benzyloxy)-pyrazin-2-yl]-phenyl}-[(2S)-pyrrolidin-1-ylmethyl-pyrrolidin-1-yl]-methanone]
2.5 µM | Nc1ncc(-c2cccc(C(=O)NCCN3CCOCC3)c2)nc1OCc1c(F)ccc(F)c1Cl [II-58, 3-[5-Amino-6-(2-chloro-3,6-difluoro-benzyloxy)-pyrazin-2-yl]-N-(2-morpholin-4-yl-ethyl)-benzamide]
0.35 µM | Nc1ncc(-c2ccc3[nH]cc(CN4CCCC4)c3c2)nc1OCc1c(F)ccc(F)c1Cl [II-62, 3-(2-Chloro-3,6-difluoro-benzyloxy)-5-(3-pyrrolidin-1-ylmethyl-1H-indol-5-yl)-pyrazin-2-ylamine]
0.73 µM | CCN(CC)Cc1c[nH]c2ccc(-c3cnc(N)c(OCc4c(F)ccc(F)c4Cl)n3)cc12 [II-63, 3-(2-Chloro-3,6-difluoro-benzyloxy)-5-(3-diethylaminomethyl-1H-indol-5-yl)-pyrazin-2-ylamine]
1.5 µM | CC(=O)N1CCN(Cc2c[nH]c3ccc(-c4cnc(N)c(OCc5c(F)ccc(F)c5Cl)n4)cc23)CC1 [II-64, 1-(4-{5-[5-Amino-6-(2-chloro-3,6-difluoro-benzyloxy)-pyrazin-2-yl]-1H-indol-3-ylmethyl}-piperazin-1-yl)-ethanone]
0.55 µM | CC(=O)N[C@H]1CCN(Cc2c[nH]c3ccc(-c4cnc(N)c(OCc5c(F)ccc(F)c5Cl)n4)cc23)C1 [II-66, N-(1-{5-[5-Amino-6-(2-chloro-3,6-difluoro-benzyloxy)-pyrazin-2-yl]-1H-indol-3-ylmethyl}-(3S)-pyrrolidin-3-yl)-acetamide]
0.51 µM | Nc1ncc(-c2ccc3[nH]cc(CN4CCCCC4)c3c2)nc1OCc1c(F)ccc(F)c1Cl [II-67, 3-(2-Chloro-3,6-difluoro-benzyloxy)-5-(3-piperidin-1-ylmethyl-1H-indol-5-yl)-pyrazin-2-ylamine]
1.15 µM | Nc1ncc(-c2ccc3[nH]cc(CN4CCOCC4)c3c2)nc1OCc1c(F)ccc(F)c1Cl [II-68, 3-(2-Chloro-3,6-difluoro-benzyloxy)-5-(3-morpholin-4-ylmethyl-1H-indol-5-yl)-pyrazin-2-ylamine]
10.6 µM | CC(C)C(Oc1nc(-c2ccc(OCCN3CCOCC3)cc2)cnc1N)c1c(F)ccc(F)c1Cl (stereo not drawn) [II-69, 3-[1-(2-Chloro-3,6-difluoro-phenyl)-2-methyl-propoxy]-5-[4-(2-morpholin-4-yl-ethoxy)-phenyl]-pyrazin-2-ylamine]
0.51 µM | CC(Oc1nc(-c2ccc(OCCN3CCOCC3)cc2)cnc1N)c1c(F)ccc(F)c1Cl (stereo not drawn) [II-70]
0.3 µM | CC(Oc1nc(-c2ccc(OCCN3CCOCC3)cc2)cnc1N)c1c(Cl)ccc(F)c1Cl (stereo not drawn) [II-71, 3-[1-(2,6-Dichloro-3-fluoro-phenyl)-ethoxy]-5-[4-(2-morpholin-4-yl-ethoxy)-phenyl]-pyrazin-2-ylamine; compound with trifluoro-acetic acid]

Compound | IC50
Nc1ncc(-c2cccc(NS(=O)(=O)CCN3CCOCC3)c2)nc1OCc1c(F)ccc(F)c1Cl [II-26, 2-Morpholin-4-yl-ethanesulfonic acid {3-[5-amino-6-(2-chloro-3,6-difluoro-benzyloxy)-pyrazin-2-yl]-phenyl}-amide] | 3.3 µM
Nc1ncc(-c2cccc(NS(=O)(=O)CCN3CCCC3)c2)nc1OCc1c(F)ccc(F)c1Cl [II-27, 2-Pyrrolidin-1-yl-ethanesulfonic acid {3-[5-amino-6-(2-chloro-3,6-difluoro-benzyloxy)-pyrazin-2-yl]-phenyl}-amide] | 1.8 µM
CN(C)CCS(=O)(=O)Nc1cccc(-c2cnc(N)c(OCc3c(F)ccc(F)c3Cl)n2)c1 [II-28, 2-Dimethylamino-ethanesulfonic acid {3-[5-amino-6-(2-chloro-3,6-difluoro-benzyloxy)-pyrazin-2-yl]-phenyl}-amide] | 2.28 µM
Nc1ncc(-c2cccc(NS(=O)(=O)CCNCC3CC3)c2)nc1OCc1c(F)ccc(F)c1Cl [II-30, 2-(Cyclopropylmethyl-amino)-ethanesulfonic acid {3-[5-amino-6-(2-chloro-3,6-difluoro-benzyloxy)-pyrazin-2-yl]-phenyl}-amide] | 1.84 µM
Nc1ncc(-c2cccc(NS(=O)(=O)CCN3CC[C@@H](O)C3)c2)nc1OCc1c(F)ccc(F)c1Cl [II-31, 2-[(3R)-3-Hydroxy-pyrrolidin-1-yl]-ethanesulfonic acid {3-[5-amino-6-(2-chloro-3,6-difluoro-benzyloxy)-pyrazin-2-yl]-phenyl}-amide] | 2.16 µM
Nc1ncc(-c2cccc(NS(=O)(=O)CCNC3CC3)c2)nc1OCc1c(F)ccc(F)c1Cl [II-32, 2-Cyclopropylamino-ethanesulfonic acid {3-[5-amino-6-(2-chloro-3,6-difluoro-benzyloxy)-pyrazin-2-yl]-phenyl}-amide] | 2.13 µM
CC(=O)N1CCN(CCNC(=O)c2ccc(-c3cnc(N)c(OCc4c(F)ccc(F)c4Cl)n3)cc2)CC1 [II-37, N-[2-(4-Acetyl-piperazin-1-yl)-ethyl]-4-[5-amino-6-(2-chloro-3,6-difluoro-benzyloxy)-pyrazin-2-yl]-benzamide] | 1.35 µM
Nc1ncc(-c2ccc(C(=O)NCCCN3CCCC3)cc2)nc1OCc1c(F)ccc(F)c1Cl [II-38, 4-[5-Amino-6-(2-chloro-3,6-difluoro-benzyloxy)-pyrazin-2-yl]-N-(3-pyrrolidin-1-yl-propyl)-benzamide] | 0.58 µM
CN(C)[C@H]1CCN(C(=O)c2ccc(-c3cnc(N)c(OCc4c(F)ccc(F)c4Cl)n3)cc2)C1 [II-39, {4-[5-Amino-8-(2-chloro-3,6-difluoro-benzyloxy)-pyrazin-2-yl]-phenyl}-[(3S)-3-dimethylamino-pyrrolidin-1-yl]-methanone] | 0.67 µM
Nc1ncc(-c2ccc(C(=O)NCCCN3CCOCC3)cc2)nc1OCc1c(F)ccc(F)c1Cl [II-43, 4-[5-Amino-6-(2-chloro-3,6-difluoro-benzyloxy)-pyrazin-2-yl]-N-(3-morpholin-4-yl-propyl)-benzamide] | 0.59 µM
Nc1ncc(-c2cccc(C(=O)NCCCN3CCOCC3)c2)nc1OCc1c(F)ccc(F)c1Cl [II-52, 3-[5-Amino-6-(2-chloro-3,6-difluoro-benzyloxy)-pyrazin-2-yl]-N-(3-morpholin-4-yl-propyl)-benzamide] | 4.2 µM
CC(=O)N1CCN(CCNC(=O)c2cccc(-c3cnc(N)c(OCc4c(F)ccc(F)c4Cl)n3)c2)CC1 [II-59, N-[2-(4-Acetyl-piperazin-1-yl)-ethyl]-3-[5-amino-6-(2-chloro-3,6-difluoro-benzyloxy)-pyrazin-2-yl]-benzamide] | 2.77 µM
Nc1ncc(-c2cccc(C(=O)NCCCN3CCCC3)c2)nc1OCc1c(F)ccc(F)c1Cl [II-60, 3-[5-Amino-6-(2-chloro-3,6-difluoro-benzyloxy)-pyrazin-2-yl]-N-(3-pyrrolidin-1-yl-pyropyl)-benzamide] | 1.48 µM
C[C@@H]1CN(Cc2c[nH]c3ccc(-c4cnc(N)c(OCc5c(F)ccc(F)c5Cl)n4)cc23)C[C@H](C)O1 [II-65, 3-(2-Chloro-3,6-difluoro-benzyloxy)-5-[3-(2,6-dimethyl-morpholin-4-ylmethyl)-1H-indol-5-yl]-pyrazin-2-ylamine] | 2.4 µM
CC(Oc1nc(-c2cccc(C(=O)O)c2)cnc1N)c1c(Cl)ccc(F)c1Cl (stereo not drawn) [II-83, 3-{5-amino-6-[1-(2,6-dichloro-3-fluoro-phenyl)-ethoxy]-pyrazin-2-yl}benzoic acid] | 1.36 µM
